Literature values, collected in patent publication US11826321B2, “Cyclobenzaprine treatment for agitation, psychosis and cognitive decline in dementia and neurodegenerative conditions” (TONIX PHARMA HOLDINGS LIMITED, priority 2017, dated 2023).

Assays:
[1] = IR 5 mg TID, 10 doses over 4 days, healthy elderly 62 to 80 years
[2] = IR 5 to 10 mg TID and ER 15 mg BID/QD to 30 mg QD; scale to 3
[3] = molecular target: serotonergic-2A (5-HT2A) receptor (Homo sapiens, UniProt P28223)
[4] = molecular target: alpha-adrenergic-1A (α1A) receptor (Homo sapiens, UniProt P35348)
Sequence of alpha-adrenergic-1A (α1A) receptor (P35348 whole entry): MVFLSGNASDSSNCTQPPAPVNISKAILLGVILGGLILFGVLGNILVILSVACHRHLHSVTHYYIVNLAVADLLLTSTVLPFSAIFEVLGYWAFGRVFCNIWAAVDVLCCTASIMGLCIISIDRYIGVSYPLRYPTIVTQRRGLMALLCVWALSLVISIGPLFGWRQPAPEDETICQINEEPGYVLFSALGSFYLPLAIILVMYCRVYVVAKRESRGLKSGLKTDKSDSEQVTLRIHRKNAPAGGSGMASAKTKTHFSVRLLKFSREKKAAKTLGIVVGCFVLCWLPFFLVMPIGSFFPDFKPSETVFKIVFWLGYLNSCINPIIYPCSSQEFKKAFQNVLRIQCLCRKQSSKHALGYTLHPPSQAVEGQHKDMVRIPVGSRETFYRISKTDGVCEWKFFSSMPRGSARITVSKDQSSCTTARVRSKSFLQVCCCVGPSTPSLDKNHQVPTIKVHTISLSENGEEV

[5] = PubMed, NIH Drug Reaction Navigator, Medscape Drug Interaction Checker, Drugs.com

Sequence of serotonergic-2A (5-HT2A) receptor (P28223 whole entry, species assumed): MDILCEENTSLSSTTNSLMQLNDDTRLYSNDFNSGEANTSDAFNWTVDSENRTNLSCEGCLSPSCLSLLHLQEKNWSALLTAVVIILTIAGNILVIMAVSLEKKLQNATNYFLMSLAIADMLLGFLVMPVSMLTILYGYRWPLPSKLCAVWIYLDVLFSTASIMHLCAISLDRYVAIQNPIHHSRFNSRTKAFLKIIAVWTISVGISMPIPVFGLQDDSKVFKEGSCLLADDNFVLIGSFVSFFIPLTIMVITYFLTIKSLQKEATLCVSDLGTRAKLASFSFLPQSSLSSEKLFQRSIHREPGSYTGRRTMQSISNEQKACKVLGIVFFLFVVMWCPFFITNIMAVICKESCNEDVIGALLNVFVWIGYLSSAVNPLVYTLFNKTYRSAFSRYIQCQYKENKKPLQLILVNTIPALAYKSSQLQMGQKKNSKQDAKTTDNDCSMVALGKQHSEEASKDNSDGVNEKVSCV

For `CN(C)CCC=C1c2ccccc2C=Cc2ccccc21` [Cyclobenzaprine, 3-(5H-dibenzola[a,d]cyclohepten-5-ylidene)-N,N-dimethyl-1 propanamine], the “hallucinations reported among patients who took 5 mg TID” value (5 mg TID) is listed as “none were reported”, the incidence of hallucinations (cyclobenzaprine 10 mg, mostly elderly patients) is listed as 0.2% and the “drowsiness and cognitive test performance” value [1] is listed as “does not appear to cause excessive drowsiness or impair performance on cognitive tasks”. For the same molecule, the “anticholinergic burden scale score” value [2] was 2, the 5-HT2A antagonist potency [3] was “potent” and the α1A antagonist potency [4] was “potent”. For the same molecule, the “reports of drug-drug interactions with donepezil, rivastigmine, galantamine, memantine” value [5] was “did not identify any reports of interactions”.
